Laboratory results reported in patent US20250034108A1, “SODIUM CHANNEL BLOCKERS” (NOVARTIS AG, priority 2023, published 2025).

How the values were obtained:
[1] = biological target: T1, human Nav1.5 (Homo sapiens (Human), UniProt Q14524); test: Qpatch automated patch-clamp, peak Nav1.5 current inhibition, 5-Hz AF-like assay (holding potential -85 mV); type: cell-based; details: CHO-K1 cells stably expressing human Nav1.5, holding potential -85 mV, Table 5, read-out: Nav1.5 IC50 (5 Hz, AF Rate)
Text: (§1) Electrophysiology was used to measure the ionic currents in isolated living cells using automated patch-clamp recording, performed using an automated patch-clamp machine called Qpatch (Sophion Bioscience). Two different assay conditions were used to identify compounds with atrial-selective potential. The 5-Hz AF-like assay has more depolarized holding potential at −85 mV to mimic atrial resting membrane potential (RMP) and was used to identify compounds of strong rate-dependence. Active, rate-dependent compounds were then screened at 1 Hz (i.e., sinus rate) at the holding potential of −100 mV to mimic the ventricular scenario and help identify compounds with the largest potency separation or attenuation from the 5-Hz AF-like assay. Such compounds have the potential for treating AF without the QRS liability inherent to Class Ic drugs.
(§2) The sodium current conducted through a cell (via Nav1.5) or electrical signals were processed through a low-pass filter at 5 KHz, re-digitalized and acquired at 20 kHz. Series resistance was not compensated and leak subtraction was performed.
(§3) 1 to 3 million Chinese Hamster Ovary cells (also known as CHO-K1) stably expressing human Nav1.5 were seeded into […] culture flasks with 25 mL medium (consisting of Gibco Dulbecco's Modified Eagle Medium as a base medium with 1% MEM non-essential amino acids, 400 μg/mL Geneticin, 5 μg/mL puromycin and 10% fetal bovine serum) 48-72 hours prior to the experiments. On the day of the experiment, cells were washed once with phosphate-buffered saline (also known as PBS; Gibco) detached with Detachin™ (Genlantis), and re-suspended in CHO—S-SFM II media (Gibco) at 200,000 cells/mL. The CHO—S-SFM II was replaced with assay solutions prior to the assays. Whole-cell currents were recorded at room temperature in the whole-cell configuration. The external aqueous assay solution (pH=7.4; Osm=307-315) contained the following (the concentration for each component is expressed in parentheses in mM): NaCl (140 mM), KCl (4 mM), CaCl2) (2 mM), MgCl2 (1 mM), 4-(2-hydroxyethyl)-1-piperazineethanesulfonic acid, also known as HEPES (10 mM), and glucose (5 mM). The internal aqueous assay solution (pH=7.2; Osm=292-295) contained the following (the concentration for each component is expressed in parentheses in mM): CsF (110 mM), CsCl (10 mM), NaCl (10 mM), HEPES (10 mM), and ethylene glycolbis(β-aminoethyl ether)-N,N,N′,N′-tetraacetic acid, also known as EGTA (10 mM).
To assess peak Nav1.5 current inhibition in an atrial fibrillation-mimicking condition (Nav1.5 IC50 (5 Hz, AF-like rate) (μM)), compounds were first prepared at 10 mM in DMSO, and cells were pre-incubated with test compounds at each concentration for 3 min. in an ascending order of 0, 0.37, 1.1, 3.3, 10 and 30 μM. An atrial action potential-like protocol consisting of a voltage ramp (+10 mV to −85 mV for a 150 ms duration and a holding potential at −85 mV) was then applied to cells at 5 Hz for 12 s until no further current change or inhibition was observed. The percent inhibition (expressed as ([Iafter compound treatment/Ibefore compound treatment]×100%) is calculated by normalizing the peak current amplitude at the last pulse of each of the 6 compound concentrations by the amplitude before exposure to the test compound. The compiled data was further normalized by vehicle control (DMSO) to account for Nav1.5 current run-down, and IC50 was calculated by Matlab (MathWorks, USA).

[2] = biological target: T1, human Nav1.5; test: Qpatch automated patch-clamp, peak Nav1.5 current inhibition, 1 Hz with 50 nM ATX-II (holding potential -100 mV); type: cell-based; details: CHO-K1 cells stably expressing human Nav1.5, read-out: Nav1.5 IC50 (1 Hz, ATXII)
Text: as §1, §2, §3
To assess peak Nav1.5 current inhibition mimicking a ventricular condition at sinus rate with or without ATX-II (Nav1.5 IC50 (1 Hz, ATXII) (μM) or (1 Hz, Sinus Rate) (μM)), compounds were first prepared at 10 mM in DMSO, and cells were pre-incubated with test compounds at each concentration for 3 min. in an ascending order of 0, 0.37, 1.1, 3.3, 10 and 30 uM. In the assay with ATX-II (Alomone Labs), 50 nM ATX-II was included during the 3-min. compound incubation. A square pulse (−10 mV; 400 ms and a holding potential at −100 mV) was run at 1 Hz for 25 s until no further inhibition or Nav1.5 current change was observed. The percent inhibition (expressed as ([Iafter compound treatment/Ibefore compound treatment]×100%) is calculated by normalizing the peak current amplitude at the last pulse of each of the 6 compound concentrations by the amplitude before exposure to the test compound. The compiled data was further normalized by vehicle control (DMSO) to account for Nav1.5 current run-down, and IC50 was calculated by Matlab (MathWorks, USA).

T1 sequence (Q14524 whole entry): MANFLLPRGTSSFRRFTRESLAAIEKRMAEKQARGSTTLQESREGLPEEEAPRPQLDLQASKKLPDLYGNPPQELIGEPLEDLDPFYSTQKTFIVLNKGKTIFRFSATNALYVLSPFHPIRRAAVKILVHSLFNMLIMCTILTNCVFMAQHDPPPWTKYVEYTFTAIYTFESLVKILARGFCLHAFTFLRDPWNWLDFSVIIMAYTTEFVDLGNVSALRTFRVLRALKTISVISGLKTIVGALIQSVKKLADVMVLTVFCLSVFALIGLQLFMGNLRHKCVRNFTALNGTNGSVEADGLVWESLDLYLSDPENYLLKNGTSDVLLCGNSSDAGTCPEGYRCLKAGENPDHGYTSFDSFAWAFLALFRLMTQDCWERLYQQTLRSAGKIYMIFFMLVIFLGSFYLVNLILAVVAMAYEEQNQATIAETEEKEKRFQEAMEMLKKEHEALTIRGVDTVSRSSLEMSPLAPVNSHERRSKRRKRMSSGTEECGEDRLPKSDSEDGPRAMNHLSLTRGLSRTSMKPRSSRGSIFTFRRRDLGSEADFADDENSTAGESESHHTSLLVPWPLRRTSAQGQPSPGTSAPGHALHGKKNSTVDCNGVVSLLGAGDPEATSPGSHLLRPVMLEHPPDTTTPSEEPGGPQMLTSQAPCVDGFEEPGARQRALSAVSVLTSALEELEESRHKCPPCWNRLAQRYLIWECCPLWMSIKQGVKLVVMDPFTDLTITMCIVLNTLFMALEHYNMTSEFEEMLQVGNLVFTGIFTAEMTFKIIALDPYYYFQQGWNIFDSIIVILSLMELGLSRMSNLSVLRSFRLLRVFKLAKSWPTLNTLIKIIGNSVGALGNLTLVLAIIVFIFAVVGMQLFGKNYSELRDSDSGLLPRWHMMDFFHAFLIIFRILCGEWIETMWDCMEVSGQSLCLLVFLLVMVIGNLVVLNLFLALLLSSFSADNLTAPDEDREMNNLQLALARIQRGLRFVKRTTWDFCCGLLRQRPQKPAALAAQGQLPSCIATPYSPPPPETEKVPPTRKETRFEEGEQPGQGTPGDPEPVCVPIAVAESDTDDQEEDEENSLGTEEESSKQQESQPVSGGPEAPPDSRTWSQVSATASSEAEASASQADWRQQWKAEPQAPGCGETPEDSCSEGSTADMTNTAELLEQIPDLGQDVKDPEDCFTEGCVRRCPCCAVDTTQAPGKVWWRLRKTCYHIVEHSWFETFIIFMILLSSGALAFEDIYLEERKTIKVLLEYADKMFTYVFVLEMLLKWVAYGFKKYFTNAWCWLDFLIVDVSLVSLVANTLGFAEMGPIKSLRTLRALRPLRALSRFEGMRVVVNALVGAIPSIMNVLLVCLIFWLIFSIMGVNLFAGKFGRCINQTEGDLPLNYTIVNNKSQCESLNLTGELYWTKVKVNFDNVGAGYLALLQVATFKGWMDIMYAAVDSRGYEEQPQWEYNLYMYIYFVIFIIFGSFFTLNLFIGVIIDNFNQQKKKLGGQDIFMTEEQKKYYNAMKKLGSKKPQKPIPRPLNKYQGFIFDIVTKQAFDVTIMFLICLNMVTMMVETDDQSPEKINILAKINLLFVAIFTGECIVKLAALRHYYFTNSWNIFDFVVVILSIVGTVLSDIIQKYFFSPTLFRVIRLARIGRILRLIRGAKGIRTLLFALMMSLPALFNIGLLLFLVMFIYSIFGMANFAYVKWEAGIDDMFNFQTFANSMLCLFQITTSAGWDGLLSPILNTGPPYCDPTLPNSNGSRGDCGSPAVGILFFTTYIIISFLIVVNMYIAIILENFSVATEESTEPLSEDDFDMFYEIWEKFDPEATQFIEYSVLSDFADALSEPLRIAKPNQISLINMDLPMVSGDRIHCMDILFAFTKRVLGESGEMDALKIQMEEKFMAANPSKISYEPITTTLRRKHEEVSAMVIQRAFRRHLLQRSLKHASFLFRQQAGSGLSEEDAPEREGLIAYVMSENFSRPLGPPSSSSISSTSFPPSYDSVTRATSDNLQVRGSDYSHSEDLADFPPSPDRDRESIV

For `CC(O)(CS(N)(=O)=O)c1cccc(-c2nnn(Cc3cc(OCC(F)(F)F)ccc3F)n2)n1` (single isomer, unassigned) [Rac-29+30, (R or S)-2-(6-(2-(2-fluoro-5-(2,2,2-trifluoroethoxy)benzyl)-2H-tetrazol-5-yl)pyridin-2-yl)-2-hydroxypropane-1-sulfonamide], which IC50 [1] is on record?
The IC50 was 2.5 µM.

What about the IC50 [2] of the same compound?
The IC50 was 3 µM.

With `CC(O)(CS(N)(=O)=O)c1cccc(-c2nnn(Cc3cc(C(F)(F)F)ccc3F)n2)n1` (single isomer, unassigned) [Example 19, (R or S)-2-(6-(2-(2-fluoro-5-(trifluoromethyl)benzyl)-2H-tetrazol-5-yl)pyridin-2-yl)-2-hydroxypropane-1-sulfonamide] as the compound, how does the IC50 [1] read?
The IC50 was 5 µM.

And the IC50 [2]?
Its IC50 is 14 µM.

Which results are given for `CC(O)(CS(N)(=O)=O)c1cccc(-c2cnn(Cc3cc(OC(F)(F)F)ccc3F)n2)n1` (single isomer, unassigned) [Example 61, (R or S)-2-(6-(2-(2-fluoro-5-(trifluoromethoxy)benzyl)-2H-1,2,3-triazol-4-yl)pyridin-2-yl)-2-hydroxypropane-1-sulfonamide]?
IC50 [1]: 5 µM; IC50 [2]: > 30 µM

How did the IC50 [1] turn out when `NS(=O)(=O)CC(O)(c1cccc(-c2ccn(Cc3cc(OC(F)(F)F)ccc3F)n2)n1)C(F)(F)F` (racemic) [Example 39, 3,3,3-trifluoro-2-(6-(1-(2-fluoro-5-(trifluoromethoxy)benzyl)-1H-pyrazol-3-yl)pyridin-2-yl)-2-hydroxypropane-1-sulfonamide] was run?
The IC50 was 4.4 µM.

And the IC50 [2]?
The IC50 was greater than 30 µM.

How did the IC50 [1] turn out when `CC(O)(CS(N)(=O)=O)c1cccc(-c2ccn(Cc3cc(OC(F)(F)F)ccc3F)n2)n1` (single isomer, unassigned) [Example 38, (R or S)-2-(6-(1-(2-fluoro-5-(trifluoromethoxy)benzyl)-1H-pyrazol-3-yl)pyridin-2-yl)-2-hydroxypropane-1-sulfonamide] was run?
The IC50 was 4.3 µM.

And the IC50 [2]?
The IC50 was greater than 30 µM.

`CC(O)(CS(N)(=O)=O)c1cccc(-c2cnn(Cc3cc(OC(F)(F)F)ccc3F)n2)n1` (racemic) [Rac-61 + 62] was tested. Which IC50 [1] did it give?
The IC50 was 3.4 µM.

And the IC50 [2]?
Its IC50 is greater than 30 µM.

With `CC(O)(CS(N)(=O)=O)c1cccc(-c2cn(Cc3cc(OC(F)(F)F)ccc3F)nn2)n1` (single isomer, unassigned) [Example 60, (R or S)-2-(6-(1-(2-fluoro-5-(trifluoromethoxy)benzyl)-1H-1,2,3-triazol-4-yl)pyridin-2-yl)-2-hydroxypropane-1-sulfonamide] as the compound, how does the IC50 [1] read?
Its IC50 is 7 µM.

What about the IC50 [2] of the same compound?
Its IC50 is 16 µM.

`CC(O)(CS(N)(=O)=O)c1cccc(-c2ccn(Cc3cc(OC(F)(F)F)ccc3F)n2)n1` (single isomer, unassigned) [Example 37, (R or S)-2-(6-(1-(2-fluoro-5-(trifluoromethoxy)benzyl)-1H-pyrazol-3-yl)pyridin-2-yl)-2-hydroxypropane-1-sulfonamide] was tested. Which IC50 [1] did it give?
The IC50 was 1.3 µM.

What about the IC50 [2] of the same compound?
The IC50 was 14 µM.

Which IC50 [1] does the source give for `CC(O)(CS(N)(=O)=O)c1cccc(-c2nnn(Cc3cc(C(F)(F)F)ccc3F)n2)n1` (single isomer, unassigned) [Example 20, (R or S)-2-(6-(2-(2-fluoro-5-(trifluoromethyl)benzyl)-2H-tetrazol-5-yl)pyridin-2-yl)-2-hydroxypropane-1-sulfonamide] here?
The IC50 was 7.9 µM.

What about the IC50 [2] of the same compound?
The IC50 was 23 µM.

What does the source list for `C[C@@](O)(CS(N)(=O)=O)c1cccc(-c2nnn(Cc3cc(OC(F)(F)F)ccc3F)n2)n1` [Example 2, (S)-2-(6-(2-(2-fluoro-5-(trifluoromethoxy)benzyl)-2H-tetrazol-5-yl)pyridin-2-yl)-2-hydroxypropane-1-sulfonamide]?
IC50 [1]: 4.7 µM; IC50 [2]: > 30 µM

Which IC50 [1] does the source give for `CC(O)(CS(N)(=O)=O)c1ccc(Cl)c(-c2nnn(Cc3cc(OC(F)(F)F)ccc3F)n2)n1` (racemic) [Rac-27 + 28, 2-(5-chloro-6-(2-(2-fluoro-5-(trifluoromethoxy)benzyl)-2H-tetrazol-5-yl)pyridin-2-yl)-2-hydroxypropane-1-sulfonamide] here?
Its IC50 is 1.1 µM.

What about the IC50 [2] of the same compound?
Its IC50 is 16 µM.

For `CC(O)(CS(N)(=O)=O)c1cccc(-c2nc(Cc3cc(OC(F)(F)F)ccc3F)no2)n1` (single isomer, unassigned) [Example 58, (R or S)-2-(6-(3-(2-fluoro-5-(trifluoromethoxy)benzyl)-1,2,4-oxadiazol-5-yl)pyridin-2-yl)-2-hydroxypropane-1-sulfonamide], which IC50 [1] is on record?
Its IC50 is 5 µM.

What about the IC50 [2] of the same compound?
The IC50 was greater than 30 µM.

With `CC(O)(CS(N)(=O)=O)c1cccc(-c2nc(Cc3cc(OC(F)(F)F)ccc3F)no2)n1` (single isomer, unassigned) [Example 57, (R or S)-2-(6-(3-(2-fluoro-5-(trifluoromethoxy)benzyl)-1,2,4-oxadiazol-5-yl)pyridin-2-yl)-2-hydroxypropane-1-sulfonamide] as the compound, how does the IC50 [1] read?
Its IC50 is 3.6 µM.

What about the IC50 [2] of the same compound?
Its IC50 is 27 µM.

Which IC50 [1] does the source give for `CC(O)(CS(N)(=O)=O)c1cccc(-c2cn(Cc3cc(OC(F)(F)F)ccc3F)nn2)n1` (single isomer, unassigned) [Rac-59 + 60, (R or S)-2-(6-(1-(2-fluoro-5-(trifluoromethoxy)benzyl)-1H-1,2,3-triazol-4-yl)pyridin-2-yl)-2-hydroxypropane-1-sulfonamide] here?
Its IC50 is 5.2 µM.

And the IC50 [2]?
The IC50 was 15 µM.

For `CC(O)(CS(N)(=O)=O)c1cccc(-c2nnn(Cc3cc(Cl)ccc3F)n2)n1` (single isomer, unassigned) [Example 22, (R or S)-2-(6-(2-(5-chloro-2-fluorobenzyl)-2H-tetrazol-5-yl)pyridin-2-yl)-2-hydroxypropane-1-sulfonamide], which IC50 [1] is on record?
Its IC50 is 8.4 µM.

What about the IC50 [2] of the same compound?
The IC50 was 22 µM.

How did the IC50 [1] turn out when `CC(O)(CS(N)(=O)=O)c1cccc(-c2ccn(Cc3cc(OC(F)(F)F)ccc3F)n2)n1` (single isomer, unassigned) [Rac-37 + 38, (R or S)-2-(6-(1-(2-fluoro-5-(trifluoromethoxy)benzyl)-1H-pyrazol-3-yl)pyridin-2-yl)-2-hydroxypropane-1-sulfonamide] was run?
The IC50 was 2.3 µM.

What about the IC50 [2] of the same compound?
The IC50 was greater than 30 µM.

For `NS(=O)(=O)CC(O)c1cccc(-c2ccn(Cc3cc(OC(F)(F)F)ccc3F)n2)n1` (racemic) [Example 36, 2-(6-(1-(2-fluoro-5-(trifluoromethoxy)benzyl)-1H-pyrazol-3-yl)pyridin-2-yl)-2-hydroxyethane-1-sulfonamide], which IC50 [1] is on record?
The IC50 was 3.7 µM.

What about the IC50 [2] of the same compound?
The IC50 was greater than 30 µM.

How did the IC50 [1] turn out when `CC(O)(CS(N)(=O)=O)c1cccc(-c2cn(Cc3cc(OC(F)(F)F)ccc3F)nn2)n1` (single isomer, unassigned) [Example 59, (R or S)-2-(6-(1-(2-fluoro-5-(trifluoromethoxy)benzyl)-1H-1,2,3-triazol-4-yl)pyridin-2-yl)-2-hydroxypropane-1-sulfonamide] was run?
Its IC50 is 3.4 µM.

And the IC50 [2]?
Its IC50 is 8.6 µM.

How did the IC50 [1] turn out when `CC(O)(CS(N)(=O)=O)c1cccc(-c2nnn(Cc3cc(OC(F)(F)F)ccc3F)n2)c1` (single isomer, unassigned) [Rac-25 + 26, (R or S)-2-(3-(2-(2-fluoro-5-(trifluoromethoxy)benzyl)-2H-tetrazol-5-yl)phenyl)-2-hydroxypropane-1-sulfonamide] was run?
The IC50 was 2.2 µM.

And the IC50 [2]?
The IC50 was greater than 30 µM.
